{
  "source": "patent US5470883A",
  "about": "(priority 1994, dated 1995)",
  "key": {"perfused rat mesentary": {"system": "perfused rat mesentary", "conditions": "cited from earlier work"}, "breast cancer": {"system": "breast cancer", "conditions": "cited from earlier work"}, "[1]": {"system": "estrogen-dependent breast cancer cell cultures", "conditions": "cited from earlier work"}, "[2]": {"system": "mammary carcinoma in rats induced by DMBA", "conditions": "cited from earlier work"}, "[3]": {"conditions": "100 to 200 times the recommended daily dose; cited from earlier work"}, "[4]": {"system": "epinephrine vasoconstriction, central artery of the rabbit ear", "test": "Transcutaneous oxygen monitor assessment of distal peripheral oxygen tension after epinephrine injection around the central artery of the rabbit ear", "format": "in vivo, New Zealand adult white rabbits", "conditions": "for effect of pretreatment on epinephrine-induced fall in peripheral blood flow / vasoconstriction: pretreatment two days, then epinephrine, estradiol 0.1 mg/kg/day, tamoxifen 2.0 mg/kg/day", "protocol": "A study utilizing 18 New Zealand adult white rabbits was performed. […] This was injected through a 27 gauge needle directly surrounding the central artery of the rabbit ear. Distally peripheral tissue oxygen tension was assessed utilizing a precalibrated transcutaneous oxygen monitor. Measurements were taken prior to injection to maintenance of a steady state. If a steady state was not reached the experiment was discontinued and retried at a later time. Post-injection measurements were taken until the return to baseline levels or up to two hours post-injection. Measurements were taken at five minute intervals preinjection and at three minute intervals post-injection. Control injections utilized 0.1 cc. of intravenous saline solution.\nIn the second phase, six rabbits were used. The animals were pretreated with intravenous injections of estradiol (0.1 mg/kg/day) for two days.\nIn phase three, animals from the second group were treated with estradiol and tamoxifen was added (2.0 mg/kg/day) for two days after allowing three weeks for the original estradiol to wash out. Another group of six animals was pretreated with tamoxifen alone (2.0 mg/kg/day) for two days."}, "[5]": {"conditions": "humans; cited from earlier work"}, "[6]": {"system": "tumor cultures without estrogen receptors", "conditions": "cited from earlier work"}, "[7]": {"conditions": "mild to moderate renal failure; cited from earlier work"}, "[8]": {"conditions": "cited from earlier work"}, "renal cortical necrosis": {"system": "renal cortical necrosis", "conditions": "induced by estrogen plus vasopression; cited from earlier work"}, "[9]": {"conditions": "single oral dose approximately 0.3 mg/kg"}},
  "note": "Structures can show the parent of a compound that is named as a salt. Where two headings read alike, the source gives them in different places.",
  "data": [
    {"smiles": "CC/C(=C(\\c1ccccc1)c1ccc(OCCN(C)C)cc1)c1ccccc1", "note": "[tamoxifen citrate, (Z)2-[4-(1,2-diphenyl-1-butenyl)phenoxy]-N, N-dimethylethanamine 2-hydroxy-1,2,3-propranetricarboxylate (1:1)]", "values": [
      {"measurement": "calcium antagonism", "setting": "perfused rat mesentary", "result": "calcium antagonist in perfused rat mesentary"},
      {"measurement": "anti-tumor effect at higher dose", "setting": "breast cancer; 40 mg per day, metastatic breast cancer to the lung", "result": "higher anti-tumor effect"},
      {"measurement": "improvement at higher daily doses", "setting": "breast cancer; 80 mg daily", "result": "have not generally resulted in greater improvement"},
      {"measurement": "delay of recurrence", "setting": "breast cancer; following total mastectomy and axillary dissection or segmental mastectomy, axillary dissection, and breast radiation, axillary node-negative breast cancer", "result": "effective in delaying the reoccurence"},
      {"measurement": "delay of recurrence", "setting": "breast cancer; following total mastectomy and axillary dissection, post-menopausal women", "result": "effective in delaying reoccurence"},
      {"measurement": "cell reproduction", "setting": "[1]", "result": "inhibit cell reproduction"},
      {"measurement": "frequency of tumor development", "setting": "[2]; administered with DMBA", "result": "decreases the frequency of tumor development"},
      {"measurement": "effect on DMBA-induced mammary carcinoma", "setting": "[2]; rats", "result": "inhibit or reverse mammary carcinoma in rats"},
      {"measurement": "overdose toxicity", "setting": "[3]", "result": "respiratory difficulties and convulsions"},
      {"measurement": "effect of pretreatment on epinephrine-induced fall in peripheral blood flow / vasoconstriction", "setting": "[4]", "result": "completely reversed the vasoconstrictive effects of epinephrine"},
      {"measurement": "effect of pretreatment on epinephrine-induced fall in peripheral blood flow / vasoconstriction", "setting": "[4]; listed as tamoxifen (Nolvadex)", "result": "completely inhibited"},
      {"measurement": "overdose cases", "setting": "[5]", "result": "no cases of tamoxifen citrate overdose have been reported in humans"},
      {"measurement": "effect in tumor cultures", "setting": "[6]", "result": "no significant effect"},
      {"measurement": "dose adjustment in renal failure", "setting": "[7]", "result": "dose adjustments are not needed in mild to moderate renal failure"},
      {"measurement": "unchanged drug and hydroxylated metabolites, share of total excreted", "setting": "[8]; excreted mainly as conjugates", "result": 30, "unit": "%"},
      {"measurement": "distribution half life", "setting": "[8]; human, in vivo", "result": "7 to 14", "unit": "h"},
      {"measurement": "elimination half-life", "setting": "[8]; human, in vivo", "result": "greater than 7 days"},
      {"measurement": "excretion in urine", "setting": "[8]; in vivo", "result": "only small amounts are excreted in the urine"},
      {"measurement": "metabolism", "setting": "[8]; in vivo", "result": "metabolised in the liver"},
      {"measurement": "absorption from the gastrointestinal tract", "setting": "[8]; oral", "result": "well-absorbed from the gastrointestinal tract"},
      {"measurement": "excretion of radioactivity in the feces", "setting": "[8]; radiolabeled tamoxifen citrate, person", "result": "most of the radioactivity is slowly excreted in the feces with only small amounts appearing in the urine"},
      {"measurement": "initial half-life", "setting": "[8]; [9]", "result": "7 to 14", "unit": "h"},
      {"measurement": "peak blood level of total radioactivity", "setting": "[8]; [9]", "result": "0.06-0.14 micrograms/mL"},
      {"measurement": "secondary peaks, time", "setting": "[8]; [9]", "result": "four"},
      {"measurement": "time of peak blood level of total radioactivity", "setting": "[8]; [9]", "result": "4 to 7", "unit": "h"},
      {"measurement": "effect on development of renal cortical necrosis", "setting": "renal cortical necrosis", "result": "have an effect on the development of renal cortical necrosis"}
    ]},
    {"smiles": "C[C@]12CC[C@@H]3c4ccc(O)cc4CC[C@H]3[C@@H]1CC[C@@H]2O", "note": "[estradiol]", "values": [
      {"measurement": "effect of pretreatment on epinephrine-induced fall in peripheral blood flow / vasoconstriction", "setting": "[4]", "result": "statistically similar fall in the peripheral blood flow as compared to those animals treated with epinephrine alone"}
    ]},
    {"smiles": "CNC[C@H](O)c1ccc(O)c(O)c1", "note": "[epinephrine]", "values": [
      {"measurement": "decreased blood flow, % of the preinjection level", "setting": "[4]; epinephrine 0.1 cc, 1:50,000", "result": 50, "unit": "%"},
      {"measurement": "tissue necrosis", "setting": "[4]; epinephrine 0.1 cc, 1:50,000", "result": "In no case was there any tissue necrosis"}
    ]}
  ]
}
